The source of these data is paper PMC5349906, “NT1721, a novel epidithiodiketopiperazine, exhibits potent in vitro and in vivo efficacy against acute myeloid leukemia” (Oncotarget, 2016).

The target of this assay is T1, SUV39H1 (Homo sapiens, UniProt O43463).
T1 construct: recombinant SUV39H1
T1 sequence (O43463 1-412): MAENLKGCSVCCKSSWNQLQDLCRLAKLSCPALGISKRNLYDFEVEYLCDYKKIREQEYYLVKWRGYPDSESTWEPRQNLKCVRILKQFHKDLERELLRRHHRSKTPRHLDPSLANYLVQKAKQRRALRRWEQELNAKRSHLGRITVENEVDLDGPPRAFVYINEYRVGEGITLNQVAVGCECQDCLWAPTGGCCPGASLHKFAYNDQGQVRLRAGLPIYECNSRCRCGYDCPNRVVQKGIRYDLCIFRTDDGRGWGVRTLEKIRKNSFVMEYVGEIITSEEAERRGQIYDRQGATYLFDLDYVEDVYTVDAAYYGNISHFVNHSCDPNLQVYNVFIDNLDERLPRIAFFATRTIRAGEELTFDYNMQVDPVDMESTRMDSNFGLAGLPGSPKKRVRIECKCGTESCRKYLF
Kind of assay: cell-free histone methyltransferase activity assay with recombinant enzyme (data not shown). In kind it is biochemical.

As for `CN1C(=O)[C@@]23C[C@](C)(C#N)[C@H](c4ccc5c(c4)OCO5)N2C(=O)[C@]1(C)SS3` (racemic) [NT1721], the IC50 amounted to 1300 nM.
